Source: article PMC7849180 (Frontiers in Pharmacology, 2020)

How the values were obtained:
[1] = test system: myeloproliferative neoplasm; test: JAK2V617F transgenic mouse model; assay type: in vivo, JAK2V617F transgenic mice; conditions: 100 mg/kg daily oral gavage, 4 weeks
Description: Suzhou Zelgen Biopharmaceuticals Co., Ltd. Jaktinib Hydrochloride Tablets Chemical Drug Class 1 New Drug […]
cells at a concentration of 1 μM. […]
effectively affect the primary cells harboring the JAK2V617F mutation in patients with […]
In Vivo Pharmacodynamic Study of ZG0128 in Mouse Model of Myeloproliferative Neoplasm
Primary myelofibrosis (PMF) is characterized by the formation of bone marrow fibrous tissues (scar-like) caused by the abnormal proliferation of three types of cells (platelets, white blood cells, and red blood cells). At present, there is still no particularly effective treatment for these diseases. JAKV617F transgenic mice and JAK2V617F bone marrow transplanted mice can develop the pathological characteristics of myeloproliferative neoplasm, which can be used to effectively evaluate the efficacy of drugs used in the treatment of myeloproliferative neoplasms.
HCD-57-JAK2V617F cells were intravenously injected into NSG mice. Three weeks later, the mice were injected intraperitoneally with a single dose of 200 mg/kg of compound ZG0128, and euthanized 4 h after drug administration. The results of […]
The ability of compound ZG0128 and its positive control drug ZG0192 to inhibit the pathological characteristics of myeloproliferative tumors (MPNs) was evaluated in a JAK2V617F bone marrow transplanted mouse model. […]

[2] = rat, in vivo, po
Description: Chemical Drug Class 1 New Drug
The study consisted of 4 groups, including the control group and dose groups of […]

[3] = design: species or system Wistar rats; conditions: rat, in vivo, po
Description: Suzhou Zelgen Biopharmaceuticals Co., Ltd. Jaktinib Hydrochloride Tablets Chemical Drug Class 1 New Drug chromosomal structural aberrations in CHL cells. Therefore, the results of the chromosomal aberration test were negative.
Mouse Bone Marrow Micronucleus Test
A mouse bone marrow micronucleus test of ZG0128 has been performed. After multiple doses of ZG0128 are given to mice via oral gavage, the incidence of micronucleated polychromatic erythrocytes in the bone marrow is observed to estimate the damage to chromosomal integrity in bone marrow cells and subsequent abnormality of chromosome segregation, so as to determine the presence of genotoxicity. The results […]
were observed every day. […] The body weight of female rats was measured twice a week before pregnancy and on days 0, 2, 4, 6, 9, 12, and 15 of gestation after successful mating. The food intake of male and female rats was measured once a week before mating. After successful mating, the food intake of female rats was measured on days 0, 6, and 12 of gestation. […] In addition, the weights of testes, epididymides, prostate, and seminal vesicles were measured to calculate the organ coefficients. […] In addition, the weights of the pregnant uterus, placenta and uterus, placenta, ovaries, brain, and the total weight of live fetuses were measured. […]

Q: Which “counts of three types of blood cells and spleen volume” value [1] does the source give for `Cl.Cl.O.[2H]C1([2H])COCC([2H])([2H])N1c1ccc(Nc2nccc(-c3ccc(C(=O)NCC#N)cc3)n2)cc1` [ZG0128, Jaktinib Dihydrochloride Monohydrate] here?
A: significant decrease

Q: And the “maximum tolerated dose (MTD)” value [2]?
A: 732 mg/kg

Q: And the “NOAEL for reproductive functions and embryonic development” value [3]?
A: 18 mg/kg
